Among the data in patent US8895733B2 (Novartis AG, priority 2010, dated 2014) are IC50 values, retold here.

Structures are written as SMILES. Where two headings read alike, the source gives them in different places. Bounds are passed on as bounds.

This experiment addresses T1, Nav 1.7 (Homo sapiens, UniProt Q15858).
T1 construct: expressed in transfected cells
Description: Whole-cell voltage clamp electrophysiology, automated patch clamp (marker c in Table of Examples). In kind it is cell-based. As to conditions: read-out: Nav 1.7 activity. From the text: a.IonWork Quattro data, b=Manual patch clamp data, c=Automated patch clamp data M=Method
Whole-Cell Voltage Clamp Electrophysiology Assay
Patch-clamp electrophysiology is considered the gold standard technique for investigation of ion channel function and pharmacology. Using this method, sodium channel currents can be measured in cells, which stably (or transiently) express the sodium channel subtype of interest. Application of compounds during such experiments provides a functional measure of the activity and potency of compounds affecting the ion channel of interest.
Electrophysiological studies can be performed using automated or manual patch-clamp techniques. Automated patch-clamp instruments suitable for this work include the Ion Works HT (MDS), Ion Works Quattro (MDS), PatchLiner (Nanion technologies), Port-A-Patch (Nanion technologies), QPatch (Sophion) or any other suitable platform.
For recording in automated patch-clamp instruments, cells expressing the voltage-gated sodium channel subtype of interest are dispensed in appropriate chips (plates with more than one recording chambers each containing one or more apertures to generate whole-cell patches), as provided by the manufacturer. Typically, the whole-cell perforated patch configuration is used for probing the pharmacology of compounds in automated patch-clamp electrophysiology on sodium channels. Extracellular and intracellular buffers for such experiments are composed according to the literature, or according to the instructions provided by the manufacturer of the instruments. Test solutions, which contain the compounds to be tested, are applied to the cells expressing the sodium channel of interest by a pipetting system, typically integrated into the robots.
A suitable voltage stimulus protocol is used to activate voltage-gated sodium channel proteins of interest. A typical stimulus protocol may consist of sweeps of sequential voltage pulses starting from a holding potential (i.e. −65 mV), to a more positive and depolarising test pulse potential (i.e. −10 mV) and finally to a more negative and hyperpolarising potential (i.e. −100 mV). According to the biophysics of the voltage-gated ion channel of interest and interest in channel configuration the voltages and durations of the pulses as well as the overall frequency of sweeps applied might vary. Accordingly, a stimulus protocol was designed to assess compounds due to their potential to block NaV1.7 channels primarily in inactivated state. Selectivity over other voltage-gated sodium channel members was assessed by protocols that reflect the native function of the channels (i.e. heart rate or firing of neurons).

Where [1] appears, read: marker c = Automated patch clamp data.
[2] abbreviates: marker c: Automated patch clamp data.

T1 sequence (Q15858 whole entry): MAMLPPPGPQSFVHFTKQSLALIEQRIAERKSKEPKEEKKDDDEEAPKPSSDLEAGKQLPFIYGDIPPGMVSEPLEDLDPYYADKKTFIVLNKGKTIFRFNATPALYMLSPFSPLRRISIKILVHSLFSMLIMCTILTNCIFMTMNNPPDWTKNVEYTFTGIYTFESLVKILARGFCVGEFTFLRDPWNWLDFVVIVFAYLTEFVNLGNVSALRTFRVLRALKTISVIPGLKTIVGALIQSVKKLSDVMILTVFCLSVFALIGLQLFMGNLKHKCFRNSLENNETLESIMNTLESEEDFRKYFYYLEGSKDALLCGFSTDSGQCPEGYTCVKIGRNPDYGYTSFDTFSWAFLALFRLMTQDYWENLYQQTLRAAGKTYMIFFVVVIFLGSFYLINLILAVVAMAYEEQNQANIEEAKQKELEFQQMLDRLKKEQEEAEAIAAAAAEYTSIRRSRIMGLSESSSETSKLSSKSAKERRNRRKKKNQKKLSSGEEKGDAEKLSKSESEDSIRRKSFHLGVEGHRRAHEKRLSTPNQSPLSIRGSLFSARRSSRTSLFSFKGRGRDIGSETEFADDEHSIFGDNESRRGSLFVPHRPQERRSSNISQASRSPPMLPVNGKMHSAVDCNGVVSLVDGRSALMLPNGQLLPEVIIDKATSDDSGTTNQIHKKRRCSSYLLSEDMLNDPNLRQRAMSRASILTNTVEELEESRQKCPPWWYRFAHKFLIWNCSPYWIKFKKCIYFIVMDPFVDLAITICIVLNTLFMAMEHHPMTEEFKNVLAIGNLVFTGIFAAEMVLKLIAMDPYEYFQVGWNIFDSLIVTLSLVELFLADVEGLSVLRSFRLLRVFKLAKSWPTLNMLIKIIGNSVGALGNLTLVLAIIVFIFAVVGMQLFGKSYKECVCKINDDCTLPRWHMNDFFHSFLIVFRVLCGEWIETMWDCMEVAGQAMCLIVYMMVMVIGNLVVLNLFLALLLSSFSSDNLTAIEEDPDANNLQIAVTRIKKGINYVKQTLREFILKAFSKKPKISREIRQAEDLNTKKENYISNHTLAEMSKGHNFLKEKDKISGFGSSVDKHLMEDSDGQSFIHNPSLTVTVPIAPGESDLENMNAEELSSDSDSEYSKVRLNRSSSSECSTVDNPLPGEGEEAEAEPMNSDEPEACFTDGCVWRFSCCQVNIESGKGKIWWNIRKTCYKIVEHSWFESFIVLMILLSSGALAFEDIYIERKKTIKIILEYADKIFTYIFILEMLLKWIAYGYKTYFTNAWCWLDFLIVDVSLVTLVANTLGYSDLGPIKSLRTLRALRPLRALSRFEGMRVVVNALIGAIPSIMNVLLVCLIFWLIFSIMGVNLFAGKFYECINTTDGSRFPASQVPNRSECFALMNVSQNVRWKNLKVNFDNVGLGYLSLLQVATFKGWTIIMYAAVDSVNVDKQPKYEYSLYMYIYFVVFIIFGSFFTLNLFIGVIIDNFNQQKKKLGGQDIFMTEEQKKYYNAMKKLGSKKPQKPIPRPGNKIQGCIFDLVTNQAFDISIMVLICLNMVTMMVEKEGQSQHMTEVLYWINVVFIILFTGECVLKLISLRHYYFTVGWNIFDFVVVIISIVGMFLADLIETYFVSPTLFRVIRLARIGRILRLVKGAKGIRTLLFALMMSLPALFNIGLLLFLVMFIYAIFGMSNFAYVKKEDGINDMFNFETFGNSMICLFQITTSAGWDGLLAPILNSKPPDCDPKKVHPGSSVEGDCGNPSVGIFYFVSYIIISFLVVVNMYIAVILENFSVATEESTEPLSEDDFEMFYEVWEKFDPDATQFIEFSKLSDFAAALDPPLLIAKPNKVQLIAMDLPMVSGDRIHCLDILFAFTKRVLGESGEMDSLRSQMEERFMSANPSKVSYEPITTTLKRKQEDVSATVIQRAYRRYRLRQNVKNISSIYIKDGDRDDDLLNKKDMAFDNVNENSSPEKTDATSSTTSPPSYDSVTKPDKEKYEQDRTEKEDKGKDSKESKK

`Cc1cccc(N(C)c2nc(N)nc(-c3noc(-c4ccc(OCC(F)(F)F)nc4)n3)n2)c1` [Example 412, 2-N-methyl-2-N-(3-methylphenyl)-6-{5-[6-(2,2,2-trifluoroethoxy)pyridin-3-yl]-1,2,4-oxadiazol-3-yl}-1,3,5-triazine-2,4-diamine]: the IC50 under setting [1] stood at 82 nM. Consider `COC[C@@H]1CCCN1c1nc(-c2nc(N)nc(N(C)c3ccccc3)n2)no1` [Example 446, 6-{5-[(2S)-2-(methoxymethyl)pyrrolidin-1-yl]-1,2,4-oxadiazol-3-yl}-2-N-methyl-2-N-phenyl-1,3,5-triazine-2,4-diamine], for which the IC50 under setting [1] turned out to be 3620 nM. On the same count and under the same terms, as for `CN(c1ccccc1)c1nc(N)nc(-c2noc(-c3nc(C(F)(F)F)cs3)n2)n1` [Example 345, 2-N-methyl-2-N-phenyl-6-{5-[4-(trifluoromethyl)-1,3-thiazol-2-yl]-1,2,4-oxadiazol-3-yl}-1,3,5-triazine-2,4-diamine], the figure is 1970 nM; as for `Nc1nc(Nc2ccccc2)nc(-c2noc(C(=O)N3CCC(COCC(F)(F)F)CC3)n2)n1` [Example 461, 2-N-phenyl-6-[5-({4-[(2,2,2-trifluoroethoxy)methyl]piperidin-1-yl}carbonyl)-1,2,4-oxadiazol-3-yl]-1,3,5-triazine-2,4-diamine], 1640 nM.

As for `CN(c1ccccc1)c1nc(N)nc(-c2noc(C3CCN(CCC(F)(F)F)C3)n2)n1` (centres unmarked) [Example 204, 2-N-methyl-2-N-phenyl-6-{5-[1-(3,3,3-trifluoropropyl)pyrrolidin-3-yl]-1,2,4-oxadiazol-3-yl}-1,3,5-triazine-2,4-diamine], the IC50 under setting [1] was more than 7830 nM. As for `CN(c1ccccc1)c1nc(N)nc(-c2noc(-c3ccc([S+]([O-])CC4CC4)nc3)n2)n1` (centres unmarked) [Example 456, 6-{5-[6-(cyclopropylmethane)sulfinylpyridin-3-yl]-1,2,4-oxadiazol-3-yl}-2-N-methyl-2-N-phenyl-1,3,5-triazine-2,4-diamine], under setting [1], the IC50 worked out at 310 nM.

As to `CCOc1ccccc1-c1nc(-c2nc(N)nc(N(CC)c3ccccc3)n2)no1` [Example 196, 6-[5-(2-ethoxyphenyl)-1,2,4-oxadiazol-3-yl]-2-N-ethyl-2-N-phenyl-1,3,5-triazine-2,4-diamine], the IC50 under setting [2] came to 764 nM. Turning to `COc1ccccc1-c1nc(-c2nc(N)nc(Nc3cccc(F)c3)n2)no1` [Example 248, 2-N-(3-fluorophenyl)-6-[5-(2-methoxyphenyl)-1,2,4-oxadiazol-3-yl]-1,3,5-triazine-2,4-diamine], the IC50 under setting [1] is 376 nM. On the same count and under the same terms, as for `CN(c1ccccc1)c1nc(N)nc(-c2noc(-c3ccc(C(=O)NC4CC4)nc3)n2)n1` [Example 287, 5-(3-{4-amino-6-[methyl(phenyl)amino]-1,3,5-triazin-2-yl}-1,2,4-oxadiazol-5-yl)-N-cyclopropylpyridine-2-carboxamide], the figure is 1890 nM; as for `CN(c1ccccc1)c1nc(N)nc(-c2noc(-c3cccnc3COCC(F)(F)F)n2)n1` [Example 301, 2-N-methyl-2-N-phenyl-6-(5-{2-[(2,2,2-trifluoroethoxy)methyl]pyridin-3-yl}-1,2,4-oxadiazol-3-yl)-1,3,5-triazine-2,4-diamine], 338 nM. With `CN(c1ccccc1)c1nc(N)nc(-c2noc(N3CCC(Oc4ccccn4)CC3)n2)n1` [Example 354, 2-N-methyl-2-N-phenyl-6-{5-[4-(pyridin-2-yloxy)piperidin-1-yl]-1,2,4-oxadiazol-3-yl}-1,3,5-triazine-2,4-diamine], under setting [1], the IC50 came out at 1200 nM. Same read-out and setting: as for `Nc1nc(Nc2cccc(F)c2)nc(-c2noc(C(=O)NC3Cc4ccccc4C3)n2)n1` [Example 225, 3-{4-amino-6-[(3-fluorophenyl)amino]-1,3,5-triazin-2-yl}-N-(2,3-dihydro-1H-inden-2-yl)-1,2,4-oxadiazole-5-carboxamide], the figure is 776 nM; as for `Nc1nc(Nc2cc(Cl)ccc2F)nc(-c2noc(-c3ccccn3)n2)n1` [Example 325, 2-N-(5-chloro-2-fluorophenyl)-6-[5-(pyridin-2-yl)-1,2,4-oxadiazol-3-yl]-1,3,5-triazine-2,4-diamine], 435 nM.

As for `COc1cccc(F)c1-c1nc(-c2nc(N)nc(N(C)c3cccc(C)c3)n2)no1` [Example 185, 6-[5-(2-fluoro-6-methoxyphenyl)-1,2,4-oxadiazol-3-yl]-2-N-methyl-2-N-(3-methylphenyl)-1,3,5-triazine-2,4-diamine], the IC50 under setting [2] came out at 144 nM. Turning to `CN(c1ccccc1)c1nc(N)nc(-c2noc(-c3cnco3)n2)n1` [Example 127, N-Methyl-6-(5-oxazol-5-yl-[1,2,4]oxadiazol-3-yl)-N-phenyl-[1,3,5]triazine-2,4-diamine], the IC50 under setting [2] was 2080 nM. For `COC(=O)c1ccc(-c2nc(-c3nc(N)nc(Nc4ccccc4)n3)no2)cn1` [Example 297], under setting [1], the IC50 worked out at 210 nM. The same measure, in the same setting: to `CCC(C)S(=O)(=O)N1CCC(c2nc(-c3nc(N)nc(Nc4ccccc4)n3)no2)CC1` (centres unmarked) [Example 514, 6-{5-[1-(butane-2-sulfonyl)piperidin-4-yl]-1,2,4-oxadiazol-3-yl}-2-N-phenyl-1,3,5-triazine-2,4-diamine] belongs 1730 nM; to `Cc1ncc(-c2nc(-c3nc(N)nc(N(C)c4ccccc4)n3)no2)cn1` [Example 467, 2-N-methyl-6-[5-(2-methylpyrimidin-5-yl)-1,2,4-oxadiazol-3-yl]-2-N-phenyl-1,3,5-triazine-2,4-diamine], 9930 nM. On the same count and under the same terms, to `Nc1nc(Nc2ccccc2)nc(-c2noc(C(=O)NC3CCCC3)n2)n1` [Example 218, 3-[4-amino-6-(phenylamino)-1,3,5-triazin-2-yl]-N-cyclopentyl-1,2,4-oxadiazole-5-carboxamide] belongs 2510 nM. With `CCN(c1ccccc1)c1nc(N)nc(-c2noc(-c3cccc(OC)c3)n2)n1` [Example 94, N-Ethyl-6-[5-(3-methoxy-phenyl)-[1,2,4]oxadiazol-3-yl]-N-phenyl-[1,3,5]triazine-2,4-diamine], the IC50 under setting [2] is 813 nM.

Take `CC(C)OC1CN(c2nc(-c3nc(N)nc(N(C)c4ccccc4)n3)no2)C1` [Example 492, 6-[5-(3-Isopropoxyazetidin-1-yl)-[1,2,4]oxadiazol-3-yl]-N-methyl-N-phenyl-[1,3,5]triazine-2,4-diamine]: the IC50 under setting [1] is more than 8080 nM. On the same count and under the same terms, to `CN(c1ccccc1)c1nc(N)nc(-c2noc(-c3ccc(S(=O)(=O)CCC(F)(F)F)nc3)n2)n1` [Example 454, 2-N-methyl-2-N-phenyl-6-(5-{6-[(3,3,3-trifluoropropane)sulfonyl]pyridin-3-yl}-1,2,4-oxadiazol-3-yl)-1,3,5-triazine-2,4-diamine] belongs 290 nM.

In the case of `Nc1nc(-c2noc(-c3ccco3)n2)nc(N2CCCc3ccccc32)n1` [Example 116, 4-(3,4-Dihydroquinolin-1-yl)-6-(5-furan-2-yl-[1,2,4]oxadiazol-3-yl)-[1,3,5]triazine-2-amine], the IC50 (no platform marker printed in the cell) was found to be 1620 nM. Regarding `CN(c1ccccc1)c1nc(N)nc(-c2noc(C3CCN(CCC(F)(F)F)CC3)n2)n1` [Example 163, 2-N-methyl-2-N-phenyl-6-{5-[1-(3,3,3-trifluoropropyl)piperidin-4-yl]-1,2,4-oxadiazol-3-yl}-1,3,5-triazine-2,4-diamine], the IC50 under setting [2] turned out to be 559 nM. Turning to `CN(c1ccccc1)c1nc(N)nc(-c2noc(-c3ccc(NCC4CC4)nc3)n2)n1` [Example 333, 6-(5-{6-[(cyclopropylmethyl)amino]pyridin-3-yl}-1,2,4-oxadiazol-3-yl)-2-N-methyl-2-N-phenyl-1,3,5-triazine-2,4-diamine], the IC50 under setting [1] turned out to be 126 nM. Regarding `Nc1nc(Nc2ccccc2)nc(-c2noc(-c3ncccc3C(F)(F)F)n2)n1` [Example 430, 2-N-phenyl-6-{5-[3-(trifluoromethyl)pyridin-2-yl]-1,2,4-oxadiazol-3-yl}-1,3,5-triazine-2,4-diamine], the IC50 under setting [1] turned out to be 146 nM.

For the molecule `COC1(c2ccccc2)CCN(c2nc(-c3nc(N)nc(N(C)c4ccccc4)n3)no2)CC1` [Example 360, 6-[5-(4-methoxy-4-phenylpiperidin-1-yl)-1,2,4-oxadiazol-3-yl]-2-N-methyl-2-N-phenyl-1,3,5-triazine-2,4-diamine], the IC50 under setting [1] came out at 2140 nM. As for `CN(c1ccccc1)c1nc(N)nc(-c2noc(-c3cccc(OCC(F)(F)F)n3)n2)n1` [Example 155, 2-N-methyl-2-N-phenyl-6-{5-[6-(2,2,2-trifluoroethoxy)pyridin-2-yl]-1,2,4-oxadiazol-3-yl}-1,3,5-triazine-2,4-diamine], the IC50 under setting [2] is 4570 nM. Consider `Nc1nc(Nc2cccc(F)c2)nc(-c2noc(NC3CCCC3)n2)n1` [Example 235, 6-[5-(cyclopentylamino)-1,2,4-oxadiazol-3-yl]-2-N-(3-fluorophenyl)-1,3,5-triazine-2,4-diamine], for which the IC50 under setting [1] came out at 1690 nM.
